In publication PMC7606612, “Identification of HMGA2 inhibitors by AlphaScreen-based ultra-high-throughput screening assays” (Scientific Reports, 2020):

Columns and labels:
HMGA2-DNA interactions [1] = target: T1, HMGA2-DNA interactions (Mus musculus, UniProt P52927); assay: AlphaScreen primary uHTS assay of His-tagged HMGA2 binding to biotin-labeled DNA oligomer FL814; design: species or system mammalian; conditions: for inhibition of HMGA2-FL814 interactions / inhibition at 5 µM: LOPAC1280 screen, final concentration of 5 µM; for inhibition of HMGA2-DNA interactions (in words): confirmed hits that do not bind to DNA; for IC50: positive controls, Fig. S1e
T1 construct: made in house
T1 sequence (P52927 2-108 limits assumed): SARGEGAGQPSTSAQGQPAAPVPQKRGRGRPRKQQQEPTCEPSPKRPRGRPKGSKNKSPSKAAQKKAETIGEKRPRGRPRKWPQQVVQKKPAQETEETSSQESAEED
Method: To address these limitations, we established a new assay using AlphaScreen technology. The assay entails binding a biotin-labeled DNA oligomer FL814 and His-tagged HMGA2 to streptavidin-coated donor beads and nickel chelate (Ni-NTA) acceptor beads, respectively (Fig. 1). A series of DNA binding studies were performed to determine the optimal conditions for the AlphaScreen Primary Assay (Fig. S1a–d). […] These two inhibitors are readily available for purchase and served as positive controls for HMGA2-DNA interaction inhibition in the assay.
Using a Labcyte Echo 555 acoustic dispenser 5 nL of DMSO were added to columns 1–4 and 45–48 of a white 1536 well plate, while 5 nL of 2 mM compounds in DMSO were added to columns 5–44. Using a Beckman BioRAPTR FRD bulk reagent dispenser 1 µL of assay buffer (30 mM Citrate, 300 mM NaCl, and 0.005% Tween 20) was added to columns 1 and 2. Next 1 µL of assay buffer containing 125 nM HMGA2 was added to columns 3–48 with a Beckman BioRAPTR FRD bulk reagent dispenser. Finally, 1 µL of assay buffer containing 25 nM FL814 was added to every well of the plate using a Beckman BioRAPTR FRD bulk reagent dispenser. The plate was then centrifuged at 200 × g for 1 min. After 30 min at room temperature, 2 µL of bead buffer (10 mM HEPES, 300 mM NaCl and 0.005% Tween 20) containing 20 µg/mL anti-6xHIS acceptor beads and 20 µg/mL streptavidin donor beads were dispensed into every well using a Beckman BioRAPTR FRD bulk reagent dispenser. The plates were then centrifuged at 200 × g for 1 min. After 1 h at room temperature the plates were read on a Perkin Elmer Envision multimode plate reader in AlphaScreen mode.

HMGA2-DNA interactions [2] = target: T1, HMGA2-DNA interactions; assay: Protein-DNA interaction ELISA (PDI-ELISA) assay; type: binding, mammalian; conditions: for IC50: inhibition of HMGA2-DNA interactions, PDI-ELISA
Text: The PDI-ELSA assays were described previously[33] and used to determine the inhibition IC50 against HMGA2-DNA interactions. The apparent inhibitory IC50 values were obtained using the following equation: y=min+(max-min/1+10^((x-logIC50)×Hillslope) , where x, y, max, and min represent the inhibitor’s concentration, the inhibition level, the maximum inhibition value, and the minimum inhibition value, respectively.

[3] = target: “AT-hook” peptide 3 (ATHP3) (Homo sapiens, UniProt P52926); assay: Isothermal titration calorimetry (ITC), titration into ATHP3; type: binding; conditions: for ATHP3 Ka (M^−1) / ATHP3 Binding site: first line; for ATHP3 Binding site: number of sites
Method: (§1) ITC experiments were conducted using a VP-ITC titration calorimeter (MicroCal, Inc., Northampton, MA) interfaced to a PC. Origin 7.0, supplied by the manufacturer was used for data acquisition. […] The heat liberated or absorbed is observed as a peak corresponding to the power required keeping the sample and reference cells at identical temperatures. The peak produced during the injection is converted to heat output by integration and corrected for cell volume and sample concentration. […] The net enthalpy for the titration reaction was determined by subtraction of the component heats of dilution.

HMGA2 = target: T2, HMGA2 (Mus musculus, UniProt P52927); assay: Isothermal titration calorimetry (ITC), titration into HMGA2; type: binding, mammalian; conditions: for HMGA2 Binding site: number of sites
T2 construct: made in house
T2 sequence (P52927 2-108 limits assumed): T1 sequence (P52927 2-108 limits assumed)
Method: as §1

HMGA2-DNA interactions [4] = target: T1, HMGA2-DNA interactions; assay: LANCE TR-FRET secondary assay of HMGA2 binding to FL814; design: species or system mammalian; concentration or dose not given beside the values; conditions: cherry picked primary hits
Method: In this study, we also developed a LANCE time-resolved fluorescence energy transfer (TR-FRET) assay as a secondary assay for our screening. The His-tagged HMGA2 and biotinylated oligomer FL814 were linked to Europium-labeled anti-6 × His antibody and APC-labeled streptavidin, respectively. A series of DNA binding studies were performed to determine the optimal conditions for the secondary Assay (Fig. S2). After these experiments, 12.5 nM of FL814 and 62.5 nM of HMGA2 were chosen for the assay, which is the same for the primary assay. The assay tolerated up to 0.25% DMSO without any significant change in signal (Fig. S2c). For a counterscreen assay to exclude those compounds that nonspecifically bind to the protein surface, an AlphaScreen assay of H4 peptide binding to bromodomain-containing protein 4 (BRD4) was adopted (Fig. S2e). Since we are looking for compounds with anti-metastasis or anti-obesity activities, compounds with high levels of cytotoxicity are undesirable. […] Furthermore, potential DNA-binding compounds, i.e., DNA intercalators, minor groove binders, and DNA alkylating agents, can be identified by analyzing their chemical structures and will be excluded as well.
Using a Labcyte Echo 555 acoustic dispenser 5 nL of DMSO were added to columns 1–4 and 45–48 of a white 1536 well plate, while 5 nL of 2 mM compounds in DMSO were added to columns 5–44. Using a Beckman BioRAPTR FRD bulk reagent dispenser 1 µL of assay buffer (10 mM Tris, 300 mM NaCl and 0.005% Tween 20) was added to columns 1 and 2. Next, 1 µL of assay buffer containing 125 nM HMGA2 was added to columns 3–48 with a Beckman BioRAPTR FRD bulk reagent dispenser. Finally, 1 µL of assay buffer containing 25 nM FL814 was added to every well of the plate using a Beckman BioRAPTR FRD bulk reagent dispenser. The plate was then centrifuged at 200 × g for 1 min. After 30 min at room temperature 1 µL of assay buffer containing 250 nM LANCE Ultra ULight-anti-6xHIS and 1 µL of assay buffer containing 12 nM LANCE Eu-W1024 Streptavidin was dispensed into every well using a Beckman BioRAPTR FRD bulk reagent dispenser. The plates were then centrifuged at 200 × g for 1 min. After 1 h at room temperature the plates were read on a Perkin Elmer Envision multimode plate reader in TR-FRET mode (excitation @340 nm, first emission at @665 nm, second emission at 615 nm).

[5] = test system: mouse pre-adipocyte 3T3-L1 cells; design: method as in PMID 25653160; conditions: cited from earlier work

Compound: NC(Cc1cc(O)c(O)cc1O)C(=O)O (racemic) [6-hydroxy-DL-DOPA]
- inhibition of HMGA2-FL814 interactions (HMGA2-DNA interactions [1]): ≥ 50%

Compound: O=C1c2ccccc2C(=O)c2c(NCCc3ccc(O)cc3)ccc(NCCc3ccc(O)cc3)c21 [JFD00244]
- inhibition of HMGA2-FL814 interactions (HMGA2-DNA interactions [1]): ≥ 50%

Compound: O=C(Nc1cccc(C(=O)Nc2ccc(S(=O)(=O)O)c3cc(S(=O)(=O)O)cc(S(=O)(=O)O)c23)c1)Nc1cccc(C(=O)Nc2ccc(S(=O)(=O)O)c3cc(S(=O)(=O)O)cc(S(=O)(=O)O)c23)c1 [NF023]
- IC50 (HMGA2-DNA interactions [2]): 10.6 ± 0.46 µM
- ATHP3 Ka (M^−1) [3]: 9.75 ± 3.47 × 10^6 M^−1
- ATHP3 Binding site [3]: 1
- HMGA2 Ka (M^−1) (HMGA2; first type of binding sites): 2.47 ± 4.53 × 10^6 M^−1
- HMGA2 Binding site (HMGA2; first type): 1.74

Compound: O=C(Nc1cc(C(=O)Nc2ccc(S(=O)(=O)O)cc2)cc(C(=O)Nc2ccc(S(=O)(=O)O)cc2)c1)Nc1cc(C(=O)Nc2ccc(S(=O)(=O)O)cc2)cc(C(=O)Nc2ccc(S(=O)(=O)O)cc2)c1 [NF110]
- IC50 (HMGA2-DNA interactions [2]): 0.87 ± 0.039 µM
- ATHP3 Ka (M^−1) [3]: 2.17 ± 0.17 × 10^7 M^−1
- ATHP3 Binding site [3]: 1.01
- HMGA2 Ka (M^−1) (HMGA2; first type of binding sites): 2.04 ± 0.48 × 10^8 M^−1
- HMGA2 Binding site (HMGA2; first type): 2.06
- HMGA2 Binding site (HMGA2; second type): 1.77
- HMGA2 Ka (M^−1) (HMGA2; second type of binding sites): 7.16 ± 0.67 × 10^5 M^−1

Compound: O=C(Nc1cc(C(=O)Nc2ccc(S(=O)(=O)O)cc2S(=O)(=O)O)cc(C(=O)Nc2ccc(S(=O)(=O)O)cc2S(=O)(=O)O)c1)Nc1cc(C(=O)Nc2ccc(S(=O)(=O)O)cc2S(=O)(=O)O)cc(C(=O)Nc2ccc(S(=O)(=O)O)cc2S(=O)(=O)O)c1 [NF449]
- IC50 (HMGA2-DNA interactions [2]): 0.43 ± 0.18 µM
- ATHP3 Ka (M^−1) [3]: 1.10 ± 7.35 × 10^11 M^−1
- ATHP3 Binding site [3]: 0.86
- HMGA2 Ka (M^−1) (HMGA2; first type of binding sites): 5.53 ± 6.14 × 10^7 M^−1
- HMGA2 Binding site (HMGA2; first type): 0.89
- HMGA2 Binding site (HMGA2; second type): 1.63
- HMGA2 Ka (M^−1) (HMGA2; second type of binding sites): 8.17 ± 1.33 × 10^5 M^−1

Compound: Nc1ccc(-c2nc3ccc(-c4nc5ccc(N)cc5[nH]4)cc3[nH]2)cc1 [Ro 90-7501]
- inhibition of HMGA2-FL814 interactions (HMGA2-DNA interactions [1]): ≥ 50%
- inhibition of HMGA2-DNA interactions (in words) (HMGA2-DNA interactions [1]): strongly inhibit HMGA2-DNA interactions
- inhibition of HMGA2-DNA interactions (HMGA2-DNA interactions [4]): ≥ 50%

Compound: COc1cccc2c1C(=O)c1c(O)c3c(c(O)c1C2=O)C[C@@](O)(C(C)=O)C[C@@H]3O[C@H]1C[C@H](NCc2ccc(CN[C@H]3C[C@H](O[C@H]4C[C@](O)(C(C)=O)Cc5c(O)c6c(c(O)c54)C(=O)c4c(OC)cccc4C6=O)O[C@@H](C)[C@H]3O)cc2)[C@H](O)[C@H](C)O1 [WP631]
- IC50 (HMGA2-DNA interactions [1]): 0.048 µM

Compound: O=C(O)C1=CC(=C(c2ccc(O)c(C(=O)O)c2)c2ccc(O)c(C(=O)O)c2)C=CC1=O [aurintricarboxylic acid]
- inhibition at 5 µM (HMGA2-DNA interactions [1]): ≥ 50%
- inhibition of HMGA2-DNA interactions (in words) (HMGA2-DNA interactions [1]): strongly inhibit HMGA2-DNA interactions
- inhibition of HMGA2-DNA interactions (HMGA2-DNA interactions [4]): ≥ 50%

Compound: N.N.O=C([O-])C1(C(=O)[O-])CCC1.[Pt+2] [carboplatin]
- inhibition of HMGA2-FL814 interactions (HMGA2-DNA interactions [1]): ≥ 50%
- inhibition of HMGA2-DNA interactions (HMGA2-DNA interactions [4]): ≥ 50%

Compound: N.N.[Cl][Pt][Cl] [cisplatin]
- inhibition of HMGA2-FL814 interactions (HMGA2-DNA interactions [1]): ≥ 50%
- inhibition of HMGA2-DNA interactions (HMGA2-DNA interactions [4]): ≥ 50%

Compound: CN(N=O)c1ccc(O)c(O)c1 [methyl-3,4-dephostatin]
- inhibition of HMGA2-FL814 interactions (HMGA2-DNA interactions [1]): ≥ 50%

Compound: O=C1c2c(O)ccc(O)c2C(=O)c2c(NCCNCCO)ccc(NCCNCCO)c21 [mitoxantrone]
- inhibition at 5 µM (HMGA2-DNA interactions [1]): ≥ 50%
- inhibition of HMGA2-DNA interactions (HMGA2-DNA interactions [4]): ≥ 50%

Compound: Cn1cc(NC(=O)c2cc(NC(=O)CN=C(N)N)cn2C)cc1C(=O)NCCC(=N)N [netropsin]
- IC50 (HMGA2-DNA interactions [1]): 0.022 µM
- differentiation of 3T3-L1 cells into adipocytes [5]: strongly inhibited

Compound: Nc1c(S(=O)(=O)O)cc(Nc2ccc(Nc3nc(Cl)nc(Nc4cccc(S(=O)(=O)O)c4)n3)c(S(=O)(=O)O)c2)c2c1C(=O)c1ccccc1C2=O [reactive blue-2]
- inhibition of HMGA2-FL814 interactions (HMGA2-DNA interactions [1]): ≥ 50%

Compound: O=S(=O)([O-])c1cccc2ccccc12.[Na+] [sodium 1-naphthalenesulfonate]
- inhibition of HMGA2-DNA interactions (in words) (HMGA2-DNA interactions [2]; SAR of suramin analogues): all of these analogues except sodium 1-naphthalenesulfonate potently inhibit HMGA2-DNA interactions
- binding to ATHP3 (in words) [3]: all these chemical compounds except sodium 1-naphthalenesulfonate strongly bind to both HMGA2 and ATHP3
- binding to HMGA2 (in words) (HMGA2): all these chemical compounds except sodium 1-naphthalenesulfonate strongly bind to both HMGA2 and ATHP3

Compound: C=C1C[C@@]23CC[C@H]4[C@@](C)(CCC[C@@]4(C)C(=O)O)[C@@H]2CC[C@]1(O)C3 [steviol]
- inhibition at 5 µM (HMGA2-DNA interactions [1]): ≥ 50%

Compound: N#CC(C#N)=C(N)/C(C#N)=C/c1cc(O)c(O)c(O)c1 [tyrphostin 51]
- inhibition at 5 µM (HMGA2-DNA interactions [1]): ≥ 50%

Compound: NF546
- IC50 (HMGA2-DNA interactions [2]): 5.49 ± 2.81 µM
- ATHP3 Ka (M^−1) [3]: 4.28 ± 0.47 × 10^6 M^−1
- ATHP3 Binding site [3]: 0.81
- HMGA2 Ka (M^−1) (HMGA2; first type of binding sites): 1.48 ± 0.47 × 10^7 M^−1
- HMGA2 Binding site (HMGA2; first type): 1.83
- HMGA2 Binding site (HMGA2; second type): 1.98
- HMGA2 Ka (M^−1) (HMGA2; second type of binding sites): 3.37 ± 8.81 × 10^5 M^−1

Compound: indirubin-3′-monoxime
- inhibition of HMGA2-FL814 interactions (HMGA2-DNA interactions [1]): ≥ 50%
